Reference: ChEMBL document CHEMBL5614367, “Hydroxamic acid hybrids: Histone deacetylase inhibitors with anticancer therapeutic potency” (Eur J Med Chem, 2023)

Key:
CAPAN-1 [1] = assay: Antitumor activity against human CAPAN-1 cells xenografted in mouse assessed as tumor growth inhibition at 50 mg/kg, ip relative to control; assay type: functional; conditions: read-out: TGI
CAPAN-1 [2] = assay: Antitumor activity against human CAPAN-1 cells xenografted in mouse assessed as tumor growth inhibition at 50 mg/kg, ip in presence of vorinostat relative to control; assay type: functional; conditions: read-out: TGI
HL-60 = assay: Antiproliferative activity against human HL-60 cells assessed as cell growth inhibition by MTT assay; assay type: functional, cell-based
U-937 = assay: Antiproliferative activity against human U-937 cells assessed as cell growth inhibition by MTT assay; assay type: functional, cell-based
HepG2 [3] = assay: Antiproliferative activity against human HepG2 cells measured after 24 hrs by MTT assay; assay type: functional, cell-based; conditions: HepG2, 24 h
HCT-116 [4] = assay: Antiproliferative activity against human HCT-116 cells measured after 24 hrs by MTT assay; assay type: functional, cell-based; conditions: HCT-116, 24 h
MCF7 [5] = assay: Antiproliferative activity against human MCF7 cells measured after 24 hrs by MTT assay; assay type: functional, cell-based; conditions: MCF7, 24 h
HeLa = assay: Antiproliferative activity against human HeLa cells measured after 24 hrs by MTT assay; assay type: functional, cell-based
Histone deacetylase 1 [6] = molecular target: T1, Histone deacetylase 1 (Homo sapiens, UniProt Q13547); assay: Inhibition of human HDAC1 incubated for 30 mins by ELISA; conditions: pooled result: one value given for 5 cell lines, strains, targets or settings
Ehrlich [7] = assay: Antitumor activity against mouse EAC cells implanted in mouse assessed as increase in life span at 0.5 mg/kg, ip relative to control; assay type: functional
Ehrlich [8] = assay: Antitumor activity against mouse EAC cells implanted in mouse assessed as reduction in tumor volume at 0.5 mg/kg, ip relative to control; assay type: functional; set-up: scale not given: the % may be the effect or the level left
U-87 MG [9] = assay: Antiproliferative activity against human U87 cells assessed as reduction in cell growth incubated for 72 hrs by MTT assay; assay type: functional, cell-based, U-87MG ATCC
U-251 = assay: Antiproliferative activity against human U-251 cells assessed as reduction in cell growth incubated for 72 hrs by MTT assay; assay type: functional, cell-based; conditions: U-251, 72 h
MCF7 [10] = assay: Antiproliferative activity against human MCF7 cells assessed as reduction in cell growth measured for 48 hrs by MTT assay; assay type: functional, cell-based; conditions: MCF7, 48 h
HepG2 [11] = assay: Antiproliferative activity against human HepG2 cells assessed as reduction in cell growth measured for 48 hrs by MTT assay; assay type: functional, cell-based; conditions: HepG2, 48 h
HCT-116 [12] = assay: Antiproliferative activity against human HCT-116 cells assessed as reduction in cell growth measured for 48 hrs by MTT assay; assay type: functional, cell-based; conditions: HCT-116, 48 h
A549 [13] = assay: Antiproliferative activity against human A549 cells assessed as reduction in cell growth measured for 48 hrs by MTT assay; assay type: functional, cell-based; conditions: A549, 48 h
Histone deacetylase 1 [14] = molecular target: T1, Histone deacetylase 1; assay: Inhibition of human HDAC1 by colorimetric ELISA assay
Histone deacetylase 2 [15] = molecular target: T2, Histone deacetylase 2 (Homo sapiens, UniProt Q92769); assay: Inhibition of human HDAC2 by colorimetric ELISA assay
[16] = molecular target: T3, Protein deacetylase HDAC6 (Homo sapiens, UniProt Q9UBN7); assay: Inhibition of HDAC6 (unknown origin) using ZMAL (Z-Lys(Ac)-AMC as fluorogenic substrate pre-incubated for 15 mins followed by susbtrate addition and measured for 45 mins by fluorescence based analysis
T3 sequence (Q9UBN7 whole entry): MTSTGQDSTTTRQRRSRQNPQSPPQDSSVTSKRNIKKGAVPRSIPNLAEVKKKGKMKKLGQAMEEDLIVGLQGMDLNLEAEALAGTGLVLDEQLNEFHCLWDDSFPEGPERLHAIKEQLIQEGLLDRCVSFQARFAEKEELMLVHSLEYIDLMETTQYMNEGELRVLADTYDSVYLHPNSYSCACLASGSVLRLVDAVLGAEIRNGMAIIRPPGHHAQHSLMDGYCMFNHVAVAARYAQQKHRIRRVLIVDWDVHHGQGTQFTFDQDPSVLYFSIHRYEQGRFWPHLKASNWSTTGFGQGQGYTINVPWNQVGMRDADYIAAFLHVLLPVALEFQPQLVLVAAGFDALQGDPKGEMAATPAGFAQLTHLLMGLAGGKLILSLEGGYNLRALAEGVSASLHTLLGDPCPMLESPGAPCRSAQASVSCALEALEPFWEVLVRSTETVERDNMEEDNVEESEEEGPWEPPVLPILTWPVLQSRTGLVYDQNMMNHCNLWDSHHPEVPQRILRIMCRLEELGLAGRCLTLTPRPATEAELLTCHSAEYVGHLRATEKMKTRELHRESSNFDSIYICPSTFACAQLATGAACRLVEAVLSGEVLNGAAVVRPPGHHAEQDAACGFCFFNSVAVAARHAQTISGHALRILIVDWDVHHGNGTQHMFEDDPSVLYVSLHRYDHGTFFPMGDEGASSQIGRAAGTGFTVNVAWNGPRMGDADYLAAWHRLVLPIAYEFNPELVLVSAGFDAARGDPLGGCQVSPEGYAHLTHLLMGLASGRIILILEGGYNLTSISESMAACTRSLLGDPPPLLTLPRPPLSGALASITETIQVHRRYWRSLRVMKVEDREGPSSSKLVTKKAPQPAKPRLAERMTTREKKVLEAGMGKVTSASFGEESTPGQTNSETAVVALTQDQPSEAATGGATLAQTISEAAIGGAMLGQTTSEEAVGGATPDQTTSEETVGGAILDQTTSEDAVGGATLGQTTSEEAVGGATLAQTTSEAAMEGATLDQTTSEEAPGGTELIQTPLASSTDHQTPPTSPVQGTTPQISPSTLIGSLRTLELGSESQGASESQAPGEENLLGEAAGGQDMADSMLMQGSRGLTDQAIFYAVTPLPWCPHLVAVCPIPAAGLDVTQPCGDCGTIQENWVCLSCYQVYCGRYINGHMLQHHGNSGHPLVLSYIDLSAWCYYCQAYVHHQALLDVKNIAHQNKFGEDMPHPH

HT-29 = assay: Antiproliferative activity against human HT-29 cells assessed as reduction in cell growth by MTT assay; assay type: functional, cell-based
SH-SY5Y = assay: Antiproliferative activity against human SH-SY5Y cells by MTT assay; assay type: functional, cell-based
Histone deacetylase 1 [17] = molecular target: T1, Histone deacetylase 1; assay: Inhibition of HDAC1 (unknown origin) using 6-carboxyfluorescein peptide as substrate incubated for 18 hrs by fluorescence based assay
Histone deacetylase 2 [18] = molecular target: T2, Histone deacetylase 2; assay: Inhibition of HDAC2 (unknown origin) using 6-carboxyfluorescein peptide as substrate incubated for 18 hrs by fluorescence based assay
[19] = molecular target: T3, Protein deacetylase HDAC6; assay: Inhibition of HDAC6 (unknown origin) using 6-carboxyfluorescein peptide as substrate incubated for 18 hrs by fluorescence based assay
A549 [20] = assay: Antiproliferative activity against human A549 cells assessed as inhibition of cell growth measured after 72 hrs by MTT assay; assay type: functional, cell-based; conditions: A549, 72 h, pooled result: one value given for 8 cell lines, strains, targets or settings
[21] = Metabolic stability in human liver microsomes assessed as half life incubated for 60 mins in presence of NADPH by LC-MS/MS analysis; assay type: ADME, Microsome
[22] = Metabolic stability in mouse liver microsomes assessed as half life incubated for 60 mins in presence of NADPH by LC-MS/MS analysis; assay type: ADME, Microsome
[23] = Metabolic stability in rat liver microsomes assessed as half life incubated for 60 mins in presence of NADPH by LC-MS/MS analysis; assay type: ADME, Microsome
[24] = Oral bioavailability in female […] at 10 mg/kg; assay type: ADME, organism-based; conditions: in vivo
U-87 MG [25] = assay: Antitumor activity against human U87 cells xenografted in mouse assessed as tumor growth inhibition at 20 mg/kg, po relative to control; assay type: functional, U-87MG ATCC; conditions: read-out: TGI
[26] = Antiproliferative activity against human MCF-10A cells assessed as reduction in cell viability incubated for 48 hrs by MTT assay; assay type: toxicity, cell-based
[27] = Antiproliferative activity against human MCF-10F cells assessed as reduction in cell viability incubated for 48 hrs by MTT assay; assay type: toxicity, cell-based
[28] = Antiproliferative activity against human BEAS-2B cells assessed as reduction in cell viability incubated for 48 hrs by MTT assay; assay type: toxicity, cell-based
Histone deacetylase 2 [29] = molecular target: T2, Histone deacetylase 2; assay: Inhibition of HDAC2 (unknown origin) using Boc-Lys-(Ac)-AMC as substrate incubated for 60 mins by fluorescence based analysis
MDA-MB-231 = assay: Antitumor activity against human MDA-MB-231 cells in nude mouse assessed as tumor growth inhibition at 20 mg/kg, ip administered once daily for 30 days relative to control; assay type: functional; conditions: MDA-MB-231, 720 h, time 30 day, read-out: TGI
[30] = molecular target: T3, Protein deacetylase HDAC6; assay: Inhibition of HDAC6 (unknown origin)
Histone deacetylase 1 [31] = molecular target: T1, Histone deacetylase 1; assay: Inhibition of HDAC1 (unknown origin)
Histone deacetylase 2 [32] = molecular target: T2, Histone deacetylase 2; assay: Inhibition of HDAC2 (unknown origin)
Histone deacetylase 3 = Histone deacetylase 3 (Homo sapiens, UniProt O15379); assay: Inhibition of HDAC3 (unknown origin)
[33] = Cytotoxicity against HEK293T cells; assay type: toxicity, cell-based, HEK-293T; conditions: human
[34] = Cytotoxicity against human PBMC cells; assay type: toxicity, cell-based
Histone deacetylase 4 = Histone deacetylase 4 (Homo sapiens, UniProt P56524); assay: Inhibition of HDAC4 (unknown origin)
[35] = Antitumor activity against mouse WEHI-3 cells implanted in mouse assessed as reduction in tumor growth at 25 mg/kg, ip relative to control; assay type: functional; set-up: scale not given: the % may be the effect or the level left
[36] = Antitumor activity against mouse WEHI-3 cells implanted in mouse assessed as survival time at 25 mg/kg, ip (reference value: 16 day); assay type: functional
CAPAN-1 [37] = assay: Antiproliferative activity against human CAPAN-1 cells; assay type: functional, cell-based
CAPAN-1 [38] = assay: Potency index, ratio of vorinostat IC50 to test compound IC50 for antiproliferative activity against human CAPAN-1 cells; assay type: functional
[39] = molecular target: Bromodomain-containing protein 4 (Homo sapiens, UniProt O60885); assay: Inhibition of BRD4 (unknown origin)
CAPAN-1 [40] = assay: Antitumor activity against human CAPAN-1 cells xenografted in mouse assessed as tumor growth inhibition at 100 mg/kg, ip relative to control; assay type: functional; conditions: read-out: TGI

T1 sequence (Q13547 whole entry): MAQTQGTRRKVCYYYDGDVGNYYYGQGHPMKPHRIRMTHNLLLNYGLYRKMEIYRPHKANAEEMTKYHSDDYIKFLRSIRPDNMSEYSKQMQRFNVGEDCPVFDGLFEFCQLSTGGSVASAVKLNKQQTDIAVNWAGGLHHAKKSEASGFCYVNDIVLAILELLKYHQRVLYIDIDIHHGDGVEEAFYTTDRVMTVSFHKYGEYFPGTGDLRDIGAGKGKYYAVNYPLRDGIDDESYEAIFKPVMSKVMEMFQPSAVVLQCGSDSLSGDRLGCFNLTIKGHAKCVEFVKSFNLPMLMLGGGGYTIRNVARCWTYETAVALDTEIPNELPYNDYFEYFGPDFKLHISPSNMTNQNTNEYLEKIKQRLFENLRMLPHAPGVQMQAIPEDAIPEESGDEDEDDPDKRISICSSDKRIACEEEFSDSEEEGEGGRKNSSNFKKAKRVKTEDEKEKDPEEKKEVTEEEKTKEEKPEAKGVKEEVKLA
T2 sequence (Q92769 whole entry): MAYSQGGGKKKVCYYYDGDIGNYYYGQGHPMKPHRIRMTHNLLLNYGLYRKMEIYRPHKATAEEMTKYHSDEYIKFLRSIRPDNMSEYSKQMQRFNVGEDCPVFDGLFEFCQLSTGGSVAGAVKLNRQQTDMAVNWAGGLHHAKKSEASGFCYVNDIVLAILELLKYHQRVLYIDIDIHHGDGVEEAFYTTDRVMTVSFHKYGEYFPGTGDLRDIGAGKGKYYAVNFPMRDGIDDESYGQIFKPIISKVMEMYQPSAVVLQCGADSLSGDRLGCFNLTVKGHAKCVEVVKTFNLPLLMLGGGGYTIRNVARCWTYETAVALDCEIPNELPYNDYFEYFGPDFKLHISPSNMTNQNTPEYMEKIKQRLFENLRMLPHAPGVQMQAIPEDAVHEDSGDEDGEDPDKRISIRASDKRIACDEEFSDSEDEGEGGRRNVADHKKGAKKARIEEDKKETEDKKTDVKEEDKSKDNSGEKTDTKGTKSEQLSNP
Sequence of Histone deacetylase 3 (O15379 whole entry): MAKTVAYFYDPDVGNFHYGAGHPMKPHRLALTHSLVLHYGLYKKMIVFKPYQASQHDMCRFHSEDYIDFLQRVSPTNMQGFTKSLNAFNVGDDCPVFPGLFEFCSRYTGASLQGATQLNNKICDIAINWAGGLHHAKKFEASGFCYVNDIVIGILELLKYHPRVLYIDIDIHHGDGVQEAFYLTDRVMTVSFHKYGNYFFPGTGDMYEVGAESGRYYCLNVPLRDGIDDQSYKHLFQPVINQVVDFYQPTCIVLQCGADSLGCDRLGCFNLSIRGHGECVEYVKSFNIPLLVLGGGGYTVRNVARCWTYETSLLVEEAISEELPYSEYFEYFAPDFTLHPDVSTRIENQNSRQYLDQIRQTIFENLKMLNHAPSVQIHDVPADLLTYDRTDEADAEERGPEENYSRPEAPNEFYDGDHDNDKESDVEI
Sequence of Histone deacetylase 4 (P56524 whole entry): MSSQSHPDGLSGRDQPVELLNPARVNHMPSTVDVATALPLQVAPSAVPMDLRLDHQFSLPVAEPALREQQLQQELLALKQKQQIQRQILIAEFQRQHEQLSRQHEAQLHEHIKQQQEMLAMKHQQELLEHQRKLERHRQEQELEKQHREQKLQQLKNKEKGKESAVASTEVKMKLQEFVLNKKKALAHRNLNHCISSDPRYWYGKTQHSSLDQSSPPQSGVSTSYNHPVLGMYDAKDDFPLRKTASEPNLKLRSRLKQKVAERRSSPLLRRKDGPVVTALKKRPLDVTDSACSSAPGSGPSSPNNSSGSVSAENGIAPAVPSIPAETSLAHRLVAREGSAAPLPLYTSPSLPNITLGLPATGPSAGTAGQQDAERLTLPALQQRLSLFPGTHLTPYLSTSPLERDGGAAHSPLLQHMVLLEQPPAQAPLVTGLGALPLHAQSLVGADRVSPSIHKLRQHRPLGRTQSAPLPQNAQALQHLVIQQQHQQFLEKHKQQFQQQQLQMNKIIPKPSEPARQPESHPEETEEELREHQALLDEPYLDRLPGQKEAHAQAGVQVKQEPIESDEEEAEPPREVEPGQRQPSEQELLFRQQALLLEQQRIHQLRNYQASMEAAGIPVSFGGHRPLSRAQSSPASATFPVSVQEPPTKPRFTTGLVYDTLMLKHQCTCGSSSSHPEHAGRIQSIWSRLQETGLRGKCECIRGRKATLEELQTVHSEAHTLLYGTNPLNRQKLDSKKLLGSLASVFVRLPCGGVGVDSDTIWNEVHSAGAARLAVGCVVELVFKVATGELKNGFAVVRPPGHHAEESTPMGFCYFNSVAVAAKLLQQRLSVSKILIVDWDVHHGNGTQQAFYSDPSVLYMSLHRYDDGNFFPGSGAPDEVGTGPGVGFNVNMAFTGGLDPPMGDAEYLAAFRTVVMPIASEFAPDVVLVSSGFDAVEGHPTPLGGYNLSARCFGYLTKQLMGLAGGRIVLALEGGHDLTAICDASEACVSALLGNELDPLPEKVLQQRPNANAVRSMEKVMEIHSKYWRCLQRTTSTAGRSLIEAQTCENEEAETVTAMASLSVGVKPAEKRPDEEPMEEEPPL

Cc1sc2c(c1C)C(c1ccc(Cl)cc1)=N[C@@H](CC(=O)OC(C)(C)C)c1nnc(C)n1-2
inhibition in vivo at 50 mg/kg (CAPAN-1 [1]): 41% | inhibition in vivo at 50 mg/kg (CAPAN-1 [2]): 57%

O=C(O)CCCc1ccc(N(CCCl)CCCl)cc1 [CHLORAMBUCIL]
IC50 (HL-60): 21100 nM | IC50 (U-937): 37700 nM

CCCC(CCC)C(=O)N[C@@H](Cc1ccccc1)C(=O)NO
IC50 (HepG2 [3]): 9620 nM | IC50 (HCT-116 [4]): 9620 nM | IC50 (MCF7 [5]): 9620 nM | IC50 (HeLa): 9620 nM | IC50 (Histone deacetylase 1 [6]): 2.86 nM | ILS at 0.5 mg/kg (Ehrlich [7]): 131% | Activity (Ehrlich [8]): ~36%

O=C(CCCCCNC(=O)c1cc(O)c2c(c1)C(=O)c1cccc(O)c1C2=O)NO
IC50 (U-87 MG [9]): 5500 nM | IC50 (U-251): 5500 nM

COc1cc(/C=C/C(=O)c2ccc(OCCCCCC(=O)NO)cc2)cc(OC)c1OC
IC50 (MCF7 [10]): 536 nM | IC50 (HepG2 [11]): 536 nM | IC50 (HCT-116 [12]): 536 nM | IC50 (A549 [13]): 536 nM | IC50 (Histone deacetylase 1 [14]): 60 nM | IC50 (Histone deacetylase 2 [15]): 60 nM

Cc1nc(C)c(C(=O)Nc2cccc(C(=O)NO)c2)nc1C
IC50 [16]: 169 nM | IC50 (HT-29): 4990 nM | IC50 (SH-SY5Y): 7630 nM

COc1cc(/C=C/C(=O)CC(=O)/C=C/c2ccc(/C=C/C(=O)NO)cc2)ccc1O
IC50 (Histone deacetylase 1 [17]): 0.38 nM | IC50 (Histone deacetylase 2 [18]): 0.38 nM | IC50 [19]: 0.38 nM | IC50 (A549 [20]): 5330 nM | half-life [21]: 91.6 min | half-life [22]: 32.7 min | half-life [23]: 40.7 min | bioavailability [24]: 40.2% | inhibition in vivo at 20 mg/kg (U-87 MG [25]): 52.1%

O=C(CCCCCC(=O)N(Cc1ccc(Br)s1)c1ccc(OCCN2CCOCC2)cc1)NO
IC50 at 48 h [26]: > 100000 nM | IC50 at 48 h [27]: > 100000 nM | IC50 at 48 h [28]: > 100000 nM | IC50 (Histone deacetylase 2 [29]): 3.22 nM | inhibition in vivo at 20 mg/kg (MDA-MB-231): ~95%

CNCCOc1ccc(-c2cc(=O)c3cc(OCCCCCC(=O)NO)cc(O)c3o2)cc1
IC50 [30]: 30 nM | IC50 (Histone deacetylase 1 [31]): 30 nM | IC50 (Histone deacetylase 2 [32]): 30 nM | IC50 (Histone deacetylase 3): 30 nM | IC50 [33]: 9490 nM | IC50 [34]: 11600 nM | IC50 (Histone deacetylase 4): 30 nM | Activity [35]: ~65% | Survival [36]: 27 days

CC1=C(C)C2C(c3ccc(Cl)cc3)=N[C@@H](CC(=O)Nc3ccc(C(=O)NO)cc3)c3nnc(C)n3C2S1 (stereo partly specified)
IC50 (Histone deacetylase 1 [31]): 21 nM | IC50 (CAPAN-1 [37]): 150 nM | Ratio IC50 (CAPAN-1 [38]): 36 | IC50 [39]: 11 nM | inhibition in vivo at 50 mg/kg (CAPAN-1 [1]): 69% | inhibition in vivo at 100 mg/kg (CAPAN-1 [40]): 87.7%
